From paper PMC4971421, “Redox-Dependent Modulation of T-Type Ca^2+ Channels in Sensory Neurons Contributes to Acute Anti-Nociceptive Effect of Substance P” (Antioxidants & Redox Signaling, 2016)
Ends that are not written are not given here.

Assays:
rat hind paw [1] = experiment: Hargreaves test, paw withdrawal latency to noxious heat; assay type: in vivo; conditions: hind-paw injection 0.001 nmol/site; 8 min after injection
Protocol: For measurement of thermal hyperalgesia, the change in the latency of hind-paw withdrawal in response to noxious heat was recorded using the Hargreaves’ plantar method (Ugo Basile) at 8 min after the hind-paw injection of drugs; the heat source was set to 25% of the maximal intensity.

rat hind paw [2] = experiment: Cotton swab test (gentle touch); assay type: in vivo; conditions: 50 μl; 0.001 nmol/site
Protocol: (§1) For measurement of sensitivity to gentle touch and mechanical hyperalgesia, two methods were used. (i) Cotton swab test was performed as previously described ([53]). Briefly, rats were allowed to acclimate in a cage with a wire mesh bottom for at least 30 min and then were manually probed with a “cotton swab” pulled from a Q-tip (to approximately three times the original size). A swab was applied in a sweeping motion underneath the rats’ paws, and the withdrawal responses were recorded. Five sweeps were applied in each test, with at least 10 s between each sweep; withdrawal score was calculated as a percentage of positive responses. (ii) The von Frey test was performed using a calibrated range of filaments with different bending forces (2, 4, 6, 8, 10, and 15 g; Stoelting Co.). A single filament was applied perpendicularly to the plantar surface of the hind paw for five times, with an interval of 5 s, and it was scored for withdrawal responses. Each force was probed five times, the number of withdrawals out of five trials was counted, and the percentage of withdrawal responses was calculated. Both types of assays were performed 8 min after the hind-paw drug injection.

CaV3 = conditions: cited from earlier work
Protocol: The T-type Ca^2+ current is an important regulator of sensory neuron excitability ([10], [17], [18], [20], [23], [24], [51], [71], [75]). […] Z944 (1 μM) inhibited LVA curren ...

[3] = tested on: T-type Ca^2+ channels (LVA Ca^2+ current) in DRG neurons; experiment: LVA (T-type) Ca2+ current, whole-cell patch clamp, cultured small-diameter DRG neurons; assay type: cell-based, rat; conditions: 1 nM; mean ± SEM, n = 7; SEM
Protocol: (§2) DRG neurons from adult male Sprague–Dawley rats (170–180 g) were dissociated as previously described ([13], [29]) and cultured in DMEM supplemented with GlutaMax I, 10% fetal calf serum, penicillin (50 U/ml), and streptomycin (50 μg/ml) on glass coverslips that were coated with poly-D-lysine for 2–5 days in a humidified incubator (37°C, 5% CO2). No growth factors were added to the culture media. HEK 293 cells were cultured in the same DMEM media; cells were passaged every 2 days. Human NK1 receptor (GenBank accession No. AY462098) complementary DNA (cDNA) was from the Missouri Science and Technology cDNA Resource Center. WtCaV3.1 (GenBank accession No. AF027984), wtCaV3.2 (GenBank accession No. AF051946), CaV3.1Q172H, and CaV3.2H191Q were kindly provided by Dr E. Perez-Reyes (University of Virginia). HEK293 cells were transfected using Lipofectamine 2000 (Invitrogen) according to the manufacturer's instructions. ST101 was synthesized in house; Z944 was from Toronto Research Chemicals; PTX was from Enzo Life Science; and FluoZin-3AM was from Life Technologies. All other chemicals were from Sigma.
All recordings were made using Multiclamp 700B amplifier in combination with pCLAMP 10.4 software (Molecular Devices). Voltage-clamp recordings from DRG neurons were made using whole-cell patch clamp. The standard bath solution contained the following (in mM): 150 TEA-Cl; 2.5 CsCl; 2.5 CaCl2; 10 HEPES; 0.5 MgCl2; and 10 glucose (pH 7.4 adjusted with CsOH). The standard pipette solution contained the following (in mM): 110 CsCl; 3 MgCl2; 10 EGTA; 10 HEPES; 3 Mg-ATP; and 0.6 GTP (pH 7.4 adjusted with CsOH). The access resistance was typically within 4–8 MΩ. T-type calcium currents (LVA) were measured by 50 ms square voltage pulses to −40 mV from a holding potential of −90 mV. HVA currents were measured by 200 ms square voltage pulses to 0 mV from a holding potential of −90 mV.
where y is the current inhibition; A1 and A2 are the maximum and minimum effects, respectively; x is the S9SP concentration; and nH is the Hill coefficient.

[4] = tested on: small-diameter DRG neurons; experiment: DRG neuron excitability, perforated patch current clamp; assay type: cell-based, rat
Protocol: To knock down CaV3.2, DRGs were dissociated as described ([13]); immediately after dissociation, DRG pellets were resuspended in 900 μl DMEM (without GlutaMax I, serum or antibiotics), to which a mixture of 9 μl Lipofectamine RNAiMAX (Invitrogen) and either a mix of three anti-Cacna1h Stealth siRNAs (RSS350285, RSS350286, RSS350287; Life Technologies; 200 nM each) or a scrambled control oligo (Stealth RNAi™ siRNA Negative Control; Life Technologies; 200 nM) were added immediately before resuspension. Cultures were than plated in 50 μl droplets onto glass coverslips that were coated with poly-D-lysine and incubated for 5–6 h; the transfection media were then replaced with full DRG culture medium. Patch-clamp recordings were conducted 24–48 h after the transfection. The following primers were used for reverse transcription polymerase chain reaction (RT-PCR) analysis: • Cacna1h sense: 5′-[…]-3′ • Cacna1h AS: 5′-[…]-3′ • Gapdh sense: 5′-[…]-3′ • Gapdh AS: 5′-[…]-3′
Neuronal excitability was studied using the amphotericin B-perforated patch-clamp current technique ([13]). The extracellular solution contained the following (in mM): 160 NaCl, 2.5 KCl, 5 CaCl2, 1 MgCl2, 10 HEPES, and 8 Glucose. The intracellular solution contained the following (in mM): 145 KCl, 15 NaCl, 5 MgCl2, 10 HEPES, and 250 μg/ml Amphotericin B. The access resistance was typically within […]. APs were generated by an injection of 200 pA current for 1 s from a holding current of 0 pA. Rheobase was determined from a train of current steps from 0 to 400 pA delivered in 20-pA increments. Current clamp recordings were sampled at 12.5 kHz. Bridge balance adjustments were not applied, since only relative changes in Erest, AP number, and rheobase were investigated.

rat hind paw [5] = experiment: von Frey test; assay type: in vivo; conditions: 50 μl; 0.001 nmol/site; filaments 2–15 g; 8 min after injection
Protocol: as §1

[6] = tested on: voltage-gated Na^+ current in DRG neurons; experiment: Voltage-gated Na+ current in DRG neurons; assay type: cell-based, rat; conditions: 1 nM
[7] = tested on: delayed-rectifier K^+ current in DRG neurons; experiment: Delayed-rectifier K+ current in DRG neurons; assay type: cell-based, rat; conditions: 1 nM
rat hind paw [8] = experiment: Nocifensive behavior after intraplantar hind-paw injection; assay type: in vivo; conditions: hind-paw injection 50 μl, 30 min
Protocol: Sprague–Dawley rats (body weight, 170–180 g) were grouped randomly and allowed to acclimate for at least 30 min in a transparent observation chamber before the experiment. Animals received a 50-μl intraplantar injection of ST101 (0.001–10 nmol/site), BK (10 nmol/site), RTG (1–10 nmol/site), Z944 (0.05–5 nmol/site), SP (0.5–5 nmol/site), or saline, respectively, into the right hind paw. For evaluation of the acute “spontaneous” pain, animals were video-recorded for 30 min after the injection and protective (“nocifensive”) behavior was analyzed as time spent licking, biting, lifting, and flinching the injected paw. The analyses were performed by an observer who was unaware of treatment allocations. In the pre-injection experiments, the right hind paw of the animal received a pre-injection of 50 μl Z944 (0.05–0.5 nmol/site), RTG (1–10 nmol/site), SP (0.5 nmol/site), Z944 (0.05–0.5 nmol/site)+RTG (1 nmol/site), or saline; 5 min later, on the same paw, the animal received a further 50-μl injection of BK (10 nmol/site) together with the pre-injection drug mix. Nocifensive behavior was analyzed as described earlier.

[9] = tested on: high-voltage-activated (HVA) Ca^2+ currents in DRG neurons; experiment: HVA Ca2+ current, whole-cell patch clamp, DRG neurons; assay type: cell-based, rat; conditions: 1 nM
Protocol: as §2, with “ST101 was synthesized in house; Z944 was from Toronto Research Chemicals; PTX was from Enzo Life Science; and FluoZin-3AM was from Life Technologies. All other chemicals were from Sigma.” left out
All recordings were made using Multiclamp 700B amplifier in combination with pCLAMP 10.4 software (Molecular Devices). […] T-type calcium currents (LVA) were measured by 50 ms square voltage pulses to −40 mV from a holding potential of −90 mV. HVA currents were measured by 200 ms square voltage pulses to 0 mV from a holding potential of −90 mV.

O=C1N=C2C=CC=CN2C12Cc1ccccc1C2 [ST101, spiro[imidazo[1,2-a]pyridine-3,2-indan]-2(3H)-one]
paw withdrawal latency on radiant heat exposure (rat hind paw [1]): significantly reduced | sensitivity to light touch, cotton swab assay (rat hind paw [2]): ineffective | EC50, CaV3 potentiation (CaV3): sub-nanomolar range | enhancement of peak LVA current [3]: 50.6% ± 14.1% | resting membrane potential (Erest) [4]: depolarized | action potential (AP) firing ([4]; 200 pA for 1 s): significantly increased | small DRG neuron excitability ([4]; perforated current clamp): increased | effect on Erest, AP number, or rheobase in Cacna1h knocked-down neurons ([4]; siRNA against Cacna1h): neither Z994 nor ST101 produced any significant effect | response to von Frey filament stimulation (rat hind paw [5]): greatly increased response rates | effect on voltage-gated Na^+ current [6]: no effect | effect on delayed-rectifier K^+ current [7]: no effect | nocifensive behavior (rat hind paw [8]; 0.001–10 nmol/site): moderate but significant protective effect | effect on HVA current [9]: without an effect

RPPGFSPFR [BK, bradykinin, pro-algesic signaling peptide]
AP number ([4]; 250 nM): increased | Erest ([4]; 250 nM): depolarized | rheobase ([4]; 250 nM): significantly reduced | nocifensive behavior (rat hind paw [8]; 10 nmol/site): strong nocifensive response
